How the values were obtained:
[1] = tested on: cadmium-induced testicular demage; details: Kar, Das and Mukerji 1960; cited from earlier work
[2] = tested on: toxicity of mercury, silver and thallium; details: observed by other researchers; cited from earlier work
[3] = Accumulation of selenium in tissue of mice; type: in vivo; details: sodium selenite in drinking water over an extended period, level at which gold was given
Description: (§1) A number of experiments in which sodium selenite was given to mice both prior to and after treatment with a gold compound were conducted. In the first series of experiments in which the selenium compound was administered prior to the gold injection, mice were given sodium selenite in their drinking water over an extended period of time. Periodically, the mice were sacrificed and the kidney and liver were analyzed to monitor the accumulation of selenium. When observed selenium levels in the liver were on the order of 5 ppm, the remaining animals were given the gold compound at levels slightly exceeding the reported LD50 value.
In these experiments, large groups of mice were fed other type selenium compounds, which were sodium selenate, selenium yeast and selenocystine. Periodically, one would be sacrificed and the selenium concentration of the kidney and liver would be determined. When above 5 to about 7 ppm selenium concentrations were obtained, the remaining mice were given injections of Na3 Au(S2 O3)2.2H2 O at the reported LD50 value. A control group that received no dietary selenium was maintained. This control group was given the gold salt at the same time as the selenium accumulated mice. The toxic effects of the gold was then compared in the two groups of mice.

[4] = tested on: toxic effects of Na3 Au(S2 O3)2.2H2 O; assay: Gold toxicity in mice given sodium selenite prior to (drinking water) or after (injection) the gold compound; type: in vivo; details: gold at or slightly exceeding reported LD50, vs gold-only control
Description: as §1
In the second series of experiments, in which sodium selenite were injected after the gold injection, the mice were given dosages of gold compounds at the reported LD50 value and were then injected with sodium selenite. In both series of experiments, a control group which received the gold compound but no selenium compound was maintained. […] In all cases, the gold was administered as Na3 Au(S2 O3)2.2H2 O.

Structure (SMILES) | protection against cadmium-induced testicular damage [1] | protection against the toxicity of mercury, silver and thallium [2] | observed selenium levels in the liver [3] [ppm] | toxic effects compared with mice which received only the gold treatment [4]
[Se] [selenium] | prevents cadmium-induced testicular demage | Protection effects |  | 
O=[Se](O)O [sodium selenite] |  |  | ~5 | markedly reduced toxic effects

— patent US4680286A, “Use of selenium-containing compounds for negating the toxic effects of gold compounds used in the treatment of rheumatoid arthritis, and a novel selenium-containing gold compound and use thereof as an anti-rheumatoid arthritis medicine” (priority 1985, dated 1987)
